Test results as given in the NIST ThermoML archive (doi:10.1021/je5001457).

Conditions: for kinematic viscosity: Liquid

F/C=C/C(F)(F)F [trans-1,3,3,3-tetrafluoropropene]
surface light scattering
Conditions | kinematic viscosity [m2/s] | surface tension liquid-gas [mN/m]
295.23 K | 1.78e-07 | 8.88
303.19 K | 1.61e-07 | 7.91
313.21 K | 1.43e-07 | 6.66
323.19 K | 1.32e-07 | 5.48
333 K | 1.19e-07 | 4.36
343.05 K | 1.13e-07 | 3.3
353 K | 1.05e-07 | 2.26
363.12 K | 9.24e-08 | 1.35
373.14 K | 8.17e-08 | 0.54

C=C(F)C(F)(F)F [2,3,3,3-tetrafluoro-1-propene]
light scattering
Conditions | kinematic viscosity [m2/s] | surface tension liquid-gas [mN/m]
293.15 K | 1.44e-07 | 6.82
303.09 K | 1.32e-07 | 5.71
313.2 K | 1.22e-07 | 4.6
323.19 K | 1.13e-07 | 3.55
333.14 K | 1.02e-07 | 2.55
343.11 K | 8.99e-08 | 1.64
353.08 K | 8.2e-08 | 0.81
358.05 K | 7.7e-08 | 0.46
363.05 K | 7e-08 | 0.15
365.05 K | 6.24e-08 | –

FCC(F)(F)F [1,1,1,2-tetrafluoroethane]
surface light scattering
Conditions | kinematic viscosity [m2/s] | surface tension liquid-gas [mN/m]
302.99 K | 1.55e-07 | 7.45
312.86 K | 1.41e-07 | 6.19
322.92 K | 1.28e-07 | 4.95
332.92 K | 1.17e-07 | 3.79
342.9 K | 1.07e-07 | 2.68
352.89 K | 9.79e-08 | 1.65
363.27 K | 8.56e-08 | 0.73
368.26 K | 7.9e-08 | 0.34
